From patent US9326539B2, “Compositions comprising dietary fat complexers and methods for their use” (Soho Flordis International Pty. Ltd., priority 2002, dated 2016)

Legend:
[1] = Wistar rat low fat/high fat diet feeding study: food and energy intake, body weight, body composition; type: in vivo, Wistar rats; conditions: 6 week study, α-cyclodextrin:fat 1:10 w/w in diet
Source text: To examine the effect of α-cyclodextrin on body weight gain and plasma lipid levels in animals fed high fat and low fat diets, we conducted a short-term feeding study using Wistar rats. Forty-two male Wistar rats, 10 weeks old, were obtained from Harlan-Sprague Dawley. Following a one-week adaptation while being fed the control low fat diet (LF), they were divided equally into two groups, one low-fat (LF) diet and the other high-fat (HF) diet. These two groups were further divided into two subgroups. Two groups were fed the LF or HF diet and served as controls for the other two test groups which were fed the LF or HF diet containing α-cyclodextrin, wherein the amount of α-cyclodextrin was such that the ratio of α-cyclodextrin to fat in the food was 1:10 w/w. […]
If this were the case it would be difficult to imagine being able to feed enough of the α-cyclodextrin to an animal in order to complex sufficient triglycerides to make a significant difference in body weight as triglycerides and α-cyclodextrin have similar molecular weights. However, from the data disclosed herein wherein e.g., a diet comprising 4% α-cyclodextrin and 40% fat inhibits weight gain and reduces body fat mass, as the molecular weights are very similar, we have calculated that one α-cyclodextrin molecule can complex approximately nine molecules of triglyceride, the equivalent of 27 free fatty acids. […]

[2] = Wistar rat feeding study: fecal fat content (total lipid of feces); type: in vivo, Wistar rats; conditions: collected feces, final three days
Source text: (§1) The rats were housed as pairs for five weeks prior to being placed in individual metabolic cages for the sixth week of the study. All of the rats' feces were collected during the final three days of the study. At the end of the sixth week of the study period the rats were sacrificed by decapitation after a brief exposure to carbon dioxide gas. Trunk blood and the livers were collected from each animal. The rest of the body was eviscerated and all visible fat from the internal cavity was collected and weighed. The carcass was frozen for body composition analysis at a later date.
Total lipid determinations were performed on the collected feces using standard techniques Folch et al. J Biol. Chem 226: 497-509 (1957) incorporated by reference. […] On average this increase was approximately 25%. […] The latter observation was confirmed by visual inspection of the feces.

[3] = Wistar rat feeding study: plasma glucose, cholesterol, triglyceride, insulin resistance; type: in vivo, Wistar rats
Source text: as §1
The plasma glucose, cholesterol and triglyceride concentrations were measured on all of the sacrificed animals using standard clinical laboratory techniques as may be found in Tietz Textbook of Clinical Chemistry, second edition. Burtis C A and Ashwood E R eds., W.B. Saunders Company A Division of Harcourt Brace & Company, 1994, Philadelphia incorporated herein by reference. (FIG. 5). On average the α-cyclodextrin appeared to have decreased the plasma total cholesterol levels by about 10%. This decrease was not statistically significant over this short study period; we expect that with longer feeding period, cholesterol levels will continue to decline. […] LDL cholesterol levels on all of the animals were too low to measure reliably since in rats the majority of the cholesterol is carried in the HDL-cholesterol fraction, and very little is carried in the LDL-cholesterol fraction.
Increased insulin resistance, elevated blood triglycerides and reduced HDL cholesterol levels are all the risk factors of Syndrome X. Insulin/glucose ratios as well as triglyceride/HDL ratios were calculated to provide indications about insulin resistance and risk of Syndrome X. (Szejtli J. Mater. Chem. 1997; 7:575-587 incorporated herein by reference). […] The reduction in triglyceride/HDL cholesterol ratios by α-cyclodextrin indicated a significant decrease in the risk for Syndrome X.

[4] = system: insulin and leptin; experiment: two additional volunteers: body weight, insulin and leptin levels (radioimmune assays); type: in vivo, human
Source text: Blood samples were taken from the two additional subjects in Example 3 at various timepoints and assayed for insulin levels and leptin levels by the method of Linco Research (St. Charles, Mo.) using human insulin and leptin radioimmune assays.

[5] = dog with chronic diarrhea fed α-cyclodextrin with dry food; type: in vivo; conditions: 2.5 g α-cyclodextrin with two cups dry food twice a day for two and one-half weeks, α-cyclodextrin:fat about 1:9
Method: An eighteen month old, neutered male dog of unknown parentage having chronic diarrhea was de-wormed twice and placed on hypoallergenic food in an effort to control the diarrhea. However, the chronic diarrhea was not alleviated and the dog stopped eating for a day or two on two or three separate occasions.
The dog was then treated with α-cyclodextrin as follows: The dog was placed on a diet comprising a teaspoon (2.5 g) of α-cyclodextrin mixed with two cups dry food twice a day for two and one-half weeks. Based on the fat content in the food, the ratio of α-cyclodextrin to fat was about 1:9. The dog's chronic diarrhea was eliminated during this period except for an acute episode of loose stools after a day of swimming in a river but the stool has been formed ever since.
The dog very quickly lost his appetite, self restricted his food intake by about one-half and began eating grass, grass helps to bind his stool. The diarrhea returned.

## OC[C@H]1O[C@@H]2O[C@H]3[C@H](O)[C@@H](O)[C@@H](O[C@H]4[C@H](O)[C@@H](O)[C@@H](O[C@H]5[C@H](O)[C@@H](O)[C@@H](O[C@H]6[C@H](O)[C@@H](O)[C@@H](O[C@H]7[C@H](O)[C@@H](O)[C@@H](O[C@H]1[C@H](O)[C@H]2O)O[C@@H]7CO)O[C@@H]6CO)O[C@@H]5CO)O[C@@H]4CO)O[C@@H]3CO [α-cyclodextrin]
[1]
  rate of body weight gain: gained weight at a slower rate relative to their respective control groups
[2]
  visual inspection of feces: no indication of diarrhea
[3]; 6 week study
  triglyceride/HDL cholesterol ratios: reduction
[3]; at sacrifice
  decrease of HDL cholesterol: 6-8%
  plasma glucose levels: not affected significantly
[3]; at sacrifice, p<0.05
  reduction of plasma triglyceride levels: about 30%
[3]; on average, at sacrifice, not statistically significant
  decrease of plasma total cholesterol: about 10%
[4]; Subject 1, 55 days on diet, day 0: 3.6
  Leptin: 2.9 ng/mL
[4]; Subject 1, 55 days on diet, day 0: 14
  Insulin: 13 uU/ml
[4]; Subject 1, 55 days on diet, day 0: 89.09
  Body weight: 85.45 kg
[4]; Subject 1, 55 days on diet, day 0: 196
  Body weight: 188 lb
[4]; Subject 1, 112 days on diet, day 0: 3.6
  Leptin: 1.6 ng/mL
[4]; Subject 1, 112 days on diet, day 0: 14
  Insulin: 8 uU/ml
[4]; Subject 1, 112 days on diet, day 0: 89.09
  Body weight: 81.82 kg
[4]; Subject 1, 112 days on diet, day 0: 196
  Body weight: 180 lb
[4]; Subject 1, day 0 to day 112
  Body weight % decrease: 5.0%
  Insulin % decrease: 42.9%
  Leptin % decrease: 55.6%
[4]; Subject 2, 28 days on diet, day 0: 6.1
  Leptin: 6.0 ng/mL
[4]; Subject 2, 28 days on diet, day 0: 26
  Insulin: 28 uU/ml
[4]; Subject 2, 28 days on diet, day 0: 105.45
  Body weight: 104.55 kg
[4]; Subject 2, 28 days on diet, day 0: 232
  Body weight: 230 lb
[4]; Subject 2, 62 days on diet, day 0: 6.1
  Leptin: 3.9 ng/mL
[4]; Subject 2, 62 days on diet, day 0: 26
  Insulin: 16 uU/ml
[4]; Subject 2, 62 days on diet, day 0: 105.45
  Body weight: 100.23 kg
[4]; Subject 2, 62 days on diet, day 0: 232
  Body weight: 220.5 lb
[4]; Subject 2, day 0 to day 62
  Body weight % decrease: 5.0%
  Insulin % decrease: 38.5%
  Leptin % decrease: 36%
[5]
  chronic diarrhea: eliminated
